Series [1] can be described thus: Effects on membrane: flux and EC rejection rate before/after contact with agent.
Protocol: The effects on a reverse osmosis membrane were evaluated for the case where the mixture of the slime-suppressing auxiliary agent for a reverse osmosis membrane (potassium iodide aqueous solution (KI)) and sodium hypochlorite (NaClO) from the example was used.
The flux and EC rejection rate of the reverse osmosis membrane are measured prior to contact with the agent • 2. The agent is brought into contact with the reverse osmosis membrane at a theoretical value for the CT value of 30,000 (mg/L as Cl^2×h) • 3. The flux and EC rejection rate of the reverse osmosis membrane are measured following the contact with the agent
The flux was calculated by dividing the permeate volume per prescribed time period at 25° C. by the membrane surface area and the operating pressure. The EC rejection rate was determined by measuring the conductivity of the permeate and the conductivity of the feed water using a conductivity measurement apparatus, with the EC rejection rate calculated as (100−[permeate conductivity/feed water conductivity]×100).
The nature of series [2]: Effect of amount added of iodide ions on oxidation-reduction potential (ORP). Format: physicochemical. The following applies: sodium hypochlorite 1 mg/L as Cl2, stirred 3 minutes after potassium iodide addition. Here is the method: A sodium hypochlorite aqueous solution was added to ultrapure water prepared with a prescribed pH value in sufficient amount to provide 1 mg/L as Cl2, potassium iodide was then added to the solution and stirred for 3 minutes, and the oxidation-reduction potential (ORP) was then measured. […] The oxidation-reduction potential (ORP) was measured using an ORP meter (RM-2oP) manufactured by DKK-TOA Corporation.

For `OCl` [NaClO, sodium hypochlorite], the Flux after contact in series [1] (ESPA2, pH 7, after contact at CT value 30,000) is 4.1 m/(d · MPa). For the same compound, the Flux before contact in series [1] (ESPA2, pH 7, baseline before contact with agent) was 2.0 m/(d · MPa).

As to `[Na+].[O-]Cl` [Reference Example 8, sodium hypochlorite], in series [2] (pH 4), the ORP is on record as 837 mV.

`[Na+].[O-]Cl` [Reference Example 10, sodium hypochlorite] yielded an ORP in series [2] (pH 7) of 638 mV.

`[Na+].[O-]Cl` [Reference Example 12, sodium hypochlorite]: in series [2] (pH 10), the ORP worked out at 359 mV.

These data come from patent US20260001792A1, “METHOD FOR PRODUCING SLIME-SUPPRESSING AUXILIARY AGENT FOR REVERSE OSMOSIS MEMBRANE, SLIME-SUPPRESSING AUXILIARY AGENT FOR REVERSE OSMOSIS MEMBRANE, AND WATER TREATMENT METHOD” (ORGANO CORPORATION, priority 2022, published 2026).
